Measured values taken from US20250170200A1, “COMPOSITION COMPRISING COFFEE EXTRACT FOR SUPPRESSING POSTPRANDIAL BLOOD SUGAR RISE” (PYXIS INC., priority 2022, published 2025).
Entries after “also recorded” stand apart in the source; their conditions may differ.

Experiments:
[1] = test system: SD rat; test: Postprandial blood sugar rise suppression after starch administration; assay type: in vivo
Description: (§1) An SD rat, a 5-week-old male, was purchased from RAONBIO, bred in an animal breeding room, and only healthy animals at 6 weeks of age were selected and used in the experiment. After fasting the experimental animals for 24 hours or longer before the experiment, the coffee extract was administered at a concentration of 0.5 g/kg to 2 g/kg body weight of sucrose or starch, and the sample was orally administered using a zonde for oral administration. The administration group was 6 groups, 6 per each group. The blood was collected from the rat tail vein at 30, 60 and 120 minutes after oral administration, and changes in blood sugar concentration in the venous blood were measured using a blood sugar meter ([…]).

[2] = test system: SD rat; test: Postprandial blood sugar rise suppression after sucrose administration; assay type: in vivo; conditions: for postprandial blood sugar: sucrose
Description: as §1

[3] = target: T1, porcine pancreatic α-amylase (Sus scrofa, UniProt P00690); test: Porcine pancreatic α-amylase inhibition assay; assay type: biochemical; conditions: at a concentration of 25 mM/ml, FIG. 4
T1 sequence (P00690 16-511): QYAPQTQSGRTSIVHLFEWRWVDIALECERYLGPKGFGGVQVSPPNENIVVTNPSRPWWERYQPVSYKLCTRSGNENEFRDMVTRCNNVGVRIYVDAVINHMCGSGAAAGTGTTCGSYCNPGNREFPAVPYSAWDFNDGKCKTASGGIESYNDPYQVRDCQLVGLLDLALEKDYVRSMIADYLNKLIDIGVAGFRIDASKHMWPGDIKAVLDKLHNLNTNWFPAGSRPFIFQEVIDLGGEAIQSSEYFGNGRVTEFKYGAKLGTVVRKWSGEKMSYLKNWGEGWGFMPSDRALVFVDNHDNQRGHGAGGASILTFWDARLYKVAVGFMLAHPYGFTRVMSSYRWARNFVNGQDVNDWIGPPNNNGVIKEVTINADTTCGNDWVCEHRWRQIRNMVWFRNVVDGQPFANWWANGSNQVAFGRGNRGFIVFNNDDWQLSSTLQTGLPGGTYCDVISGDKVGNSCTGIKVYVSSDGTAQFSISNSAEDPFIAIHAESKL
Description: • Enzyme: porcine pancreatic α-amylase • Substrate: 1% starch solution in 0.02 M sodium phosphate buffer (pH 6.9) • Coloring Reagent: 3,5-dinitrosalicylic acid solution (DNS) in 2 M NaOH with 30% sodium potassium tartrate tetrahydrate
200 μl of a sample solution was added to 300 μl of a porcine pancreatic α-amylase solution having a concentration of 10 U, which is dissolved in a 0.02 M sodium phosphate buffer (pH 6.9; including 0.006 M sodium chloride), and incubated at 25° C. for 10 minutes.
500 μl of a 1% starch solution, which was pre-cultured at 25° C. for 10 minutes, was added to the solution, and the mixture was reacted at 25° C. for 10 minutes.
1 ml of a 1% DNS solution dissolved in 30% Rochelle salt was added and treated in boiling water bath for 5 minutes and cooled to room temperature, and 10 ml of distilled water was added to the resultant.
The absorbance of a reaction solution of the DNS solution and sugar decomposed from the substrate by α-amylase was measured at 540 nm by using an ELISA reader.

[4] = test system: rat intestinal α-glucosidase; test: Rat intestinal α-glucosidase inhibition assay; assay type: biochemical; conditions: in words, FIG. 1 and FIG. 2
Description: • Enzyme: rat small intestinal acetone powder • Substrate: PNP-glycoside (pNPG, p-Nitrophenyl α-Dglucopyranoside) 150 mg of rat small intestine acetone powder was added to 9 ml of 0.1 M sodium phosphate buffer (pH 6.9; including 0.9% sodium chloride), ultrasonicated 12 times in an ice water bath for 30 seconds, and then centrifuged at 13,000 rpm and 4° C. for 3 minutes. After centrifugation, a supernatant was collected and used in rat intestinal α-glucosidase inhibition assay. 100 μl of a rat α-glucosidase solution and 50 μl of a sample solution were added and reacted at 37° C. for 10 minutes, and then 50 μl of 5 mM pNPG solution was added thereto to react the mixture at 37° C. for 10 minutes. After completion of the reaction, inhibitory activity against rat intestinal α-glucosidase was analyzed by measuring absorbance at 405 nm by using an ELISA reader. The sample solution used in the experiment was prepared as follows. The hot-water extract was centrifuged (8000 rpm, 30 min), the supernatant was filtered through a filter paper (90 mm/Whatman™), and the filtrate was concentrated to 60 to 150 ml and freeze-dried to produce extract powder. 100 mg of powder was mixed with 1 L of water to prepare a sample solution.

[5] = 0.1 g/kg of chlorogenic acid, 30 minutes
[6] = 0.1 g/kg of chlorogenic acid, 60 minutes (first value of 'from 30 minutes to 2 hours')
[7] = 0.1 g/kg of chlorogenic acid, 120 minutes (2 hours)
[8] = 0.5 g/kg of chlorogenic acid, 30 minutes
[9] = 0.5 g/kg of chlorogenic acid, 60 minutes (first value of 'from 30 minutes to 2 hours')
[10] = 0.5 g/kg of chlorogenic acid, 120 minutes (2 hours)

Question: `O=C(/C=C/c1ccc(O)c(O)c1)O[C@@H]1C[C@](O)(C(=O)O)C[C@@H](O)[C@H]1O` [chlorogenic acid] was tested. Which blood sugar [1, 5] did it give?
Answer: The blood sugar was 239.00 ± 25.86 mg/dL.

Question: What about the blood sugar [1, 6] of the same molecule?
Answer: Its blood sugar is 137.33 ± 10.46 mg/dL.

Question: And the blood sugar [1, 7]?
Answer: The blood sugar was 126.08 ± 10.75 mg/dL.

Question: And the blood sugar [1, 8]?
Answer: Its blood sugar is 225.17 ± 18.37 mg/dL.

Question: What about the blood sugar [1, 9] of the same molecule?
Answer: Its blood sugar is 137.23 ± 9.58 mg/dL.

Question: What about the blood sugar [1, 10] of the same molecule?
Answer: Its blood sugar is 126.46 ± 12.1 mg/dL.

Question: And the “effect on postprandial blood sugar rise after sucrose intake” value ([2]; in words)?
Answer: The value was “effect of suppressing postprandial blood sugar rise”.

Question: What about the postprandial blood sugar [2, 5] of the same molecule?
Answer: Its postprandial blood sugar is 184.93 ± 8.24 mg/dL.

Question: What about the postprandial blood sugar [2, 6] of the same molecule?
Answer: Its postprandial blood sugar is 174.00 ± 16.67 mg/dL.

Question: And the postprandial blood sugar [2, 7]?
Answer: Its postprandial blood sugar is 147.38 ± 10.86 mg/dL.

Question: And the postprandial blood sugar [2, 8]?
Answer: Its postprandial blood sugar is 131.29 ± 14.47 mg/dL.

Question: What about the postprandial blood sugar [2, 9] of the same molecule?
Answer: Its postprandial blood sugar is 130.64 ± 10.90 mg/dL.

Question: What about the postprandial blood sugar [2, 10] of the same molecule?
Answer: The postprandial blood sugar was 120.69 ± 13.77 mg/dL.

Question: What about the “inhibitory activity against α-amylase” value [3] of the same molecule?
Answer: Its value is “excellent inhibitory activity”.

Question: What about the “inhibitory activity against rat intestinal α-glucosidase” value [4] of the same molecule?
Answer: The value was “increases in dependence on the concentration; also recorded: the most excellent”.

Question: For `O=C(O)/C=C/c1ccc(O)c(O)c1` [caffeic acid], which “inhibitory activity against rat intestinal α-glucosidase” value [4] is on record?
Answer: Its value is “increases in dependence on the concentration”.

Question: Which results are given for `O=C(O)[C@]1(O)C[C@@H](O)[C@@H](O)[C@H](O)C1` [quinic acid]?
Answer: inhibitory activity against α-amylase [3]: excellent inhibitory activity; inhibitory activity against rat intestinal α-glucosidase [4]: increases in dependence on the concentration
